From patent publication US20230094952A1, “Method for Culturing Hematopoietic Stem Cells” (Sumitomo Pharma Co., Ltd., priority 2019, published 2023)

System: mouse long-term hematopoietic stem cells
Assay: Reproducibility and concentration dependence test: 1-week culture of sorted Hoxb5-tri-mCherry mouse long-term hematopoietic stem cells, flow cytometry
Type: cell-based
Conditions: Table 4, day 7 of culture, n=2
Protocol: Mice with insertion of a nucleic acid sequence containing three copies of a gene encoding the fluorescent protein mCherry to the C terminus of the mouse endogenous HoxB5 gene (Hoxb5-tri-mCherry) were used (triple-mCherry Hoxb5 knock-in mice; Non Patent Literature 1). The mice were housed under environmental conditions such that the room temperature and the humidity were 20 to 26° C. and 40 to 70%, respectively, under light for 12 hours and under dark for 12 hours (illumination: 8:00 a.m. to 8:00 p.m.).
Bone marrow cells were collected from the tibia, femur, humerus, and pelvis in each side of each of the mice, and gathered in a mortar. A buffer obtained by adding thermally deactivated bovine serum (manufactured by Gibco) at a final concentration of 2% and EDTA at a final concentration of 2 mM to Ca^2+-free and Mg^2+-free PBS was added, and the resultant was broken with a pestle to obtain a cell population including hematopoietic stem cells.
First, the thus-obtained cell population including hematopoietic stem cells was passed through strainers (meshes) of 100 μm, 70 μm, and 40 μm. The cell population was stained with an APC-binding anti-c-Kit (2B8) and fractionated with anti-APC magnetic beads and an LS column (both manufactured by Miltenyi Biotec) to obtain a cell population enriched with hematopoietic stem cells and progenitor cells.
Subsequently, cells being c-Kit-positive were stained with antibodies for the following cell surface markers.
Staining with the antibodies was performed at 4° C., and the cells were incubated for 30 minutes. For staining with the CD34 antibody, the cells were incubated for 90 minutes. Dead cell staining was performed with SYTOX Red Dead Cell Stain (manufactured by Life Technologies) in accordance with a method recommended by the manufacturer.
Flow cytometry analysis and cell classification (cell sorting) were performed with a FACS Aria II cell sorter (manufactured by BD Biosciences), wherein Lineage-negative, c-Kit-positive, Sca-1-positive, Flk2-negative, CD34-negative or weakly CD34-positive, CD150-positive, and mCherry-positive fractions were regarded as long-term hematopoietic stem cells, and analysis was performed with the software FlowJo (manufactured by Tree Star, Inc.).
The cells after classification were seeded in a 96-well plate. A cell culture medium was prepared by adding Stem Cell Factor (SCF, manufactured by PeproTech, Inc.) and Thrombopoietin (TPO, manufactured by PeproTech, Inc.) to StemSpan SFEM culture medium (manufactured by […] Technologies Inc.) and added in advance to a cell culture 96-well plate (manufactured by BD Biosciences) at 100 μL/well, and the cells sorted with the FACS Aria II cell sorter (BD Biosciences) were then seeded at 10 cells/well.
[…] Thereafter, the cells were cultured in a CO2 incubator under conditions of 37° C. and 5% CO2 for 1 week.
After culture, the cells were stained with the antibodies for the surface markers c-Kit and Sca-1, Ter-119, B220, CD3, CD4, CD8a, Gr-1, and CD11b, and the ratio and post-growth cell count of a KLS fraction (c-Kit^+, Lin^−, Sca-1^+) or an mCherry-positive fraction given with use of a FACS Aria II cell sorter were analyzed by using FlowJo (BD Biosciences). The mCherry-positive fraction is a cell fraction expressing the Hoxb5 gene, and the KLS fraction is a cell fraction being c-Kit-positive, Lin-negative, and Sca-1-positive, and includes hematopoietic stem cells and multipotent progenitor cells as main components. […]

| SMILES | KLS-positive rate (compound 0.1 μM) [%] | Viable cell count (compound 0.1 μM) [cell] | mCherry-positive rate (compound 0.1 μM) [%] | KLS-positive rate (compound 0.3 μM) [%] | Viable cell count (compound 0.3 μM) [cell] | mCherry-positive rate (compound 0.3 μM) [%] | KLS-positive rate (compound 1 μM) [%] | Viable cell count (compound 1 μM) [cell] | mCherry-positive rate (compound 1 μM) [%] | KLS-positive rate (compound 3 μM) [%] | Viable cell count (compound 3 μM) [cell] | mCherry-positive rate (compound 3 μM) [%] | KLS-positive rate (compound 10 μM) [%] | Viable cell count (compound 10 μM) [cell] | mCherry-positive rate (compound 10 μM) [%] |
| --- | --- | --- | --- | --- | --- | --- | --- | --- | --- | --- | --- | --- | --- | --- | --- |
| C[C@H]1[C@H](Oc2ccccc2)O[C@@H]2O[C@@]3(C)CC[C@H]4[C@H](C)CC[C@@H]1[C@@]24OO3 [Example 1-25, (3R,5aS,6R,8aS,9R,10R,12R,12aR)-3,6,9-trimethyl-10-phenoxydecahydro-12H-3,12-epoxypyrano[4,3-j][1,2]benzodioxepine] | 40.0 | 181.5 | 52.3 | 0.0 | 0.5 | 0.0 | 0.0 | 0.0 | 0.0 | 50.0 | 0.5 | 50.0 | 0.0 | 0.0 | 0.0 |
| CS[C@@H]1O[C@@H]2O[C@@]3(C)CC[C@H]4[C@H](C)CC[C@@H]([C@H]1C)[C@@]24OO3 [Example 1-3, (3R,5aS,6R,8aS,9R,10S,12S,12aR)-3,6,9-Trimethyl-10-(methylsulfanyl)decahydro-12H-3,12-epoxypyrano[4,3-j][1,2]benzodioxepine] | 15.8 | 445.0 | 8.0 | 18.6 | 324.0 | 4.7 | 20.3 | 299.5 | 38.6 | 24.2 | 139.0 | 97.0 | 83.4 | 3.5 | 100.0 |
| CS[C@H]1O[C@@H]2O[C@@]3(C)CC[C@H]4[C@H](C)CC[C@@H]([C@H]1C)[C@@]24OO3 [Example 1-4, (3R,5aS,6R,8aS,9R,10R,12S,12aR)-3,6,9-trimethyl-10-(methylsulfanyl)decahydro-12H-3,12-epoxypyrano[4,3-j][1,2]benzodioxepine] | 17.2 | 353.0 | 8.0 | 37.9 | 103.0 | 44.7 | 31.1 | 181.5 | 85.2 | 30.7 | 87.5 | 100.0 | 61.4 | 7.5 | 90.9 |
| C[C@H]1[C@@H](Oc2ccccc2)O[C@@H]2O[C@@]3(C)CC[C@H]4[C@H](C)CC[C@@H]1[C@@]24OO3 [Example 1-21, (3R,5aS,6R,8aS,9R,10S,12R,12aR)-3,6,9-trimethyl-10-phenoxydecahydro-12H-3,12-epoxypyrano[4,3-j][1,2]benzodioxepine] | 0.0 | 0.0 | 0.0 | 0.0 | 2.0 | 50.0 | 0.0 | 0.5 | 0.0 | 0.0 | 0.5 | 50.0 | 0.0 | 0.5 | 50.0 |
| C[C@@H]1CC[C@H]2[C@@H](C)C(=O)O[C@@H]3O[C@@]4(C)CC[C@@H]1[C@]32O4 [Example 1-34, (3R,3aS,6R,6aS,9S,10aS,10bR)-3,6,9-Trimethyloctahydro-10aH-9,10b-epoxypyrano[4,3,2-jk][2]benzoxepin-2(3H)-one] | 77.3 | 136.5 | 11.7 | 28.4 | 389.0 | 18.3 | 21.8 | 713.5 | 15.2 | 27.7 | 268.0 | 14.6 | 27.5 | 70.0 | 0.4 |
| C[C@H]1[C@H](CN)O[C@@H]2O[C@@]3(C)CC[C@H]4[C@H](C)CC[C@@H]1[C@@]24OO3 [Example 1-18, 1-[(3R,5aS,6R,8aS,9R,10R,12R,12aR)-3,6,9-Trimethyldecahydro-12H-3,12-epoxypyrano[4,3-j][1,2]benzodioxepin-10-yl]methanamine] | 10.9 | 405.0 | 23.5 | 16.7 | 191.0 | 15.4 | 22.4 | 162.0 | 19.2 | 30.9 | 154.0 | 80.5 | 49.6 | 72.5 | 98.6 |
| C[C@H]1[C@@H](C(N)=O)O[C@@H]2O[C@@]3(C)CC[C@H]4[C@H](C)CC[C@@H]1[C@@]24OO3 [Example 1-15, (3R,5aS,6R,8aS,9R,10S,12R,12aR)-3,6,9-Trimethyldecahydro-12H-3,12-epoxypyrano[4,3-j][1,2]benzodioxepine-10-carboxamide] | 6.8 | 379.0 | 7.1 | 13.0 | 540.0 | 13.3 | 17.9 | 258.0 | 47.3 | 40.0 | 111.0 | 87.1 | 54.9 | 42.5 | 97.6 |
| CC(=O)OCCO[C@@H]1O[C@@H]2O[C@@]3(C)CC[C@H]4[C@H](C)CC[C@@H]([C@H]1C)[C@@]24OO3 [Example 1-27, 2-{[(3R,5aS,6R,8aS,9R,10R,12R,12aR)-3,6,9-Trimethyldecahydro-12H-3,12-epoxypyrano[4,3-j][1,2]benzodioxepin-10-yl]oxy}ethyl acetate] | 45.4 | 122.0 | 44.3 | 75.0 | 14.5 | 94.7 | 100.0 | 6.0 | 100.0 | 90.0 | 6.0 | 100.0 | 49.8 | 17.5 | 100.0 |
| C[C@H]1[C@H](C(=O)O)O[C@@H]2O[C@@]3(C)CC[C@H]4[C@H](C)CC[C@@H]1[C@@]24OO3 [Example 1-8, (3R,5aS,6R,8aS,9R,10R,12R,12aR)-3,6,9-Trimethyldecahydro-12H-3,12-epoxypyrano[4,3-j][1,2]benzodioxepine-10-carboxylic acid] | 17.3 | 396.5 | 3.0 | 18.2 | 379.5 | 7.7 | 28.7 | 248.0 | 12.0 | 37.3 | 204.5 | 12.9 | 20.6 | 286.5 | 29.0 |
